Experimental data reported in patent publication US10553890B2, “Aqueous redox flow batteries” (UCHICAGO ARGONNE, LLC, priority 2017, dated 2020).
Entries after “also recorded” stand apart in the source; their conditions may differ.

Experiments:
Assay type in all cases: physicochemical
[1] = Solubility in aqueous acid; conditions: aqueous acid / acidic conditions
[2] = Cyclic voltammetry (three-electrode cell, glassy carbon working electrode, Ag/AgCl reference); conditions: for redox stability (irreversible side reactions): 5 mV/s, cycling 0 V up to about 1.2 V; for oxidation potential: glassy carbon; for observed oxidation potential: 1 mM in 0.5 M sulfuric acid, scan rate 20 mV/s, 0 V to 1 V
Protocol: Cyclic voltammetry (CV) measurements: CV experiments were performed in custom-made three-electrode electrochemical cells with 3 mm diameter glassy carbon working electrode, a Ag/AgCl reference electrode and a platinum wire counter electrode using 1470E SOLARTRON ANALYTICAL INSTRUMENT.

[3] = Galvanostatic bulk electrolysis cycling; conditions: 1 mM in 3.0 M sulfuric acid, constant current 2.68 mA, cut-off 0.25 V to 0.85 V
Protocol: Galvanostatic bulk electrolysis: Galvanostatic cycling test was performed with a three-electrode bulk electrolysis electrochemical cell using 1470E SOLARTRON ANALYTICAL INSTRUMENT. Reticulated vitreous carbon was used as the working electrode, Ag/AgCl electrode was used as the reference electrode and coiled platinum enclosed in glass tubes with porous ceramic frit was used as the counter electrode.

[4] = Diffusion coefficient measurement using Randle-Sevcik equation; conditions: scan rates 10-100 mV/s
Protocol: Diffusion coefficient measurement: Diffusion coefficients were measured using Randle-Sevcik equation as shown below. In this equation, ip is the peak current, n represents the number of electrons transferred in the redox reaction, F is the Faraday's constant, A is the electrode area, c represents the concentration, v is the scan rate, D is the diffusion coefficient, R is the gas constant and T is the absolute temperature.

[5] = 5 mM in 1.0 M sulfuric acid, scan rate 5 mV/s

Row | capacity and capacity retention [3] | observed oxidation potential [2] | Compound | redox stability (irreversible side reactions) ([2]; 5 mM in 1.0 M sulfuric acid) | oxidation potential [2, 5] | other results
1 | – | – | CC1(C)CC(N)CC(C)(C)N1[O] [4-NH2-TEMPO, 4-amino-2,2,6,6-tetramethylpiperidyl-1-oxyl] | irreversible reduction; also recorded: greater redox stability (i.e., less severe irreversible side reactions) than 4-OH-TEMPO | 0.92 V (vs. AG/AgCl) | solubility [1]: higher solubility than 4-OH-TEMPO; oxidation potential higher than 4-OH-TEMPO [2, 5]: 0.09 V
2 | – | – | CC1(C)CC(O)CC(C)(C)N1[O] [4-OH-TEMPO, reference compound] | irreversible reduction | 0.83 V (vs. AG/AgCl) | –
3 | very similar | 0.66 V (vs. AG/AgCl) | CN(C)c1cc(S(=O)(=O)O)c(O)c(S(=O)(=O)O)c1 [DADPS, 5-(dimethylamino)-2-hydroxybenzene-1,3-disulfonic acid] | – | – | potential in bulk electrolysis relative to unsubstituted aminophenol (DMAP) [3]: increased potential
4 | very similar | 0.56 V (vs. AG/AgCl) | CN(C)c1ccc(O)cc1 [DMAP, 4-dimethylaminophenol] | – | – | diffusion coefficient ([4]; 1 mM in 0.5 M sulfuric acid): 3.9×10^−6 cm^2/s
5 | – | – | NCCc1ccc(O)c(O)c1 [dopamine, 3,4-dihydroxyphenethylamine, reference compound] | – | – | diffusion coefficient ([4]; 50 mM in 0.5 M sulfuric acid): 2.43×10^−6 cm^2/s
